Reference: patent publication US4048305A, “Tripeptides, their esters and amides, and anti-ulcera activity thereof” (Dr. L. Zambeletti S.p.A., priority 1975, dated 1977)
Square brackets hold non-standard residues; d marks the D form. Peptide text beside a SMILES is read from it.

Experiments:
[1] = test system: "Swiss" strain male mouse; assay: Acute toxicity (lethality) in mouse, oral; assay type: in vivo; conditions: for Mouse LD50: Swiss male mouse, fasted 15 hours, suspended in peanut oil, gastric probe
Procedure: The acute toxicity was assayed in "Swiss" strain male mouse weighing 20-24 g. which were held, before the test, in the cages for 10 days at standard ambient conditions (temperature 22° C, humidity about 50%) and kept on a controlled diet (Altromin).
Before the test, the animals were deprived of food for 15 hours, while leaving water "ad libitum".
Lethality was determined on 10 animals for each group-dose by using on the whole 60 animals for each product. For administration, the products were suspended into peanut oil and administered at the maximum volume of 0.1 ml/10 g. of body weight, by means of a gastric probe.

[2] = test system: female rats of "Wistar" strain; assay: Gastro-protective activity, Shay method (pylorus tying) in rats; assay type: in vivo, rat; conditions: 100 mg/Kg in peanut oil, 18 hours after administration; for Rat (Shay test) Ulcer depth M ± es: arbitrary values 1 to 4, peanut oil controls 2.4 ± 0.5; for Rat (Shay test) No. of ulcers M ± es: ulcers in the rumen, peanut oil controls 10.7 ± 2.2
Procedure: Gastro-protective activity of the products was assayed on rats by employing the Shay method (Shay H., Komarov, S. A., Fels, S. S., Meranze, D;, Gruenstein, M. and Siplet, H:Gastroenterology, 5, 43-61, 1945).
The investigation was performed on female rats of "Wistar" strain, of the average weight of 200 g., which had been held, before experiment, in the cages for 10 days at standard ambient conditions (temperature 22° C, humidity about 50%) on a controlled diet (Altromin).
72 hours before the test the animals, distributed into individual cages, were deprived of food while leaving water "ad libitum".
At the end of this time, the animals were anaesthetized with ether and, by opening the abdomen, the tying of the pylorus was effected as well as, thereafter, the administration of the products in the dose of 100 mg/Kg dissolved into peanut oil. The suture of the abdomen was then performed and the animals were then placed again into their respective contention cages.
For each product 15 animals were used whilst another set of 15 animals, which served as control, was given peanut oil at the same volume as that of the treated ones.
After 18 hours from administration of the products, the animals were killed under chloroformic narcosis, the stomachs were removed and opened along the greter curvature and then fixed on cork supports for counting the number of ulcers present in the "rumen" and for evaluating the depth of the lesions by arbitrarily assigning values ranging from 1 to 4 according to the intensity of the lesion.

Row | Structure (SMILES) | Mouse LD50 [1] [mg/Kg/os] | Rat (Shay test) Ulcer depth M ± es [2] | Rat (Shay test) No. of ulcers M ± es [2] | LD50 ([1]; mouse, oral, in peanut oil)
1 | CNC(=O)[C@H](Cc1c[nH]cn1)NC(=O)[C@H](Cc1ccccc1)NC(=O)[C@H](Cc1ccccc1)NC(C)=O [N-acetyl-l-phenylalanyl-l-phenylalanyl-l-histidine methylamide] (Ac-Phe-Phe-His-NHMe) | > 5000 | 1.4 ± 0.3 | 5.8 ± 1.4 | 
2 | COC(=O)[C@H](Cc1c[nH]cn1)NC(=O)[C@@H](Cc1ccccc1)NC(=O)[C@H](Cc1ccccc1)NC(C)=O [N-acetyl-l-phenylalanyl-d-phenylalanyl-l-histidine-methylester] | > 5000 | 1.5 ± 0.4 | 5.6 ± 1.5 | 
3 | COC(=O)[C@H](Cc1c[nH]cn1)NC(=O)[C@H](Cc1ccccc1)NC(=O)[C@H](Cc1ccccc1)NC(C)=O [N-acetyl-l-phenylalanyl-l-phenylalanyl-l-histidine methylester] | > 5000 | 1.1 ± 0.3 | 4.6 ± 1.1 | 
4 | CC(=O)N[C@@H](Cc1ccccc1)C(=O)N[C@H](Cc1ccccc1)C(=O)N[C@@H](Cc1c[nH]cn1)C(N)=O [N-acetyl-l-phenylalanyl-d-phenylalanyl-l-histidineamide] (Ac-Phe-[dF]-His-NH2) | > 5000 | 1.3 ± 0.2 | 6.2 ± 1.6 | 
5 | COC(=O)C(Cc1c[nH]cn1)NC(=O)C(Cc1ccccc1)NC(=O)C(Cc1ccccc1)NC(C)=O (mixture of isomers) [N-acetyl-dl-phenylalanyl-dl-phenylalanyl-dl-histidine methylester] | > 5000 | 1.7 ± 0.2 | 6.7 ± 1.7 | 
6 | CC(=O)N[C@@H](Cc1ccccc1)C(=O)N[C@@H](Cc1ccccc1)C(=O)N[C@@H](Cc1c[nH]cn1)C(N)=O [N-acetyl-l-phenylalanyl-l-phenylalanyl-l-histidineamide] (Ac-Phe-Phe-His-NH2) | > 5000 | 1.1 ± 0.4 | 3.1 ± 1.7 | 
7 | CC(=O)N[C@@H](Cc1ccccc1)C(=O)N[C@@H](Cc1ccccc1)C(=O)N[C@@H](Cc1c[nH]cn1)C(=O)O [N-acetyl-l-phenylalanyl-l-phenylalanyl-l-histidine] (Ac-Phe-Phe-His-OH) | ≥ 5000 | 2.1 ± 0.3 | 8.4 ± 1.8 | approximately 5 g./Kg
